# Reference: patent US9908831B2, “Resist composition, method for forming resist pattern, polyphenolic compound for use in the composition, and alcoholic compound that can be derived therefrom” (Mitsubishi Gas Chemical Company, Inc., priority 2011, dated 2018)
# Assays:
# Assay type in all cases: physicochemical
# [1] = Solubility of compound in methyl ethyl ketone (MEK); details: dissolution amount in MEK at 23° C., visual
# Method: (1) Solubility of Compound in Methyl Ethyl Ketone (MEK)
# (§1) The solubility of the compound in MEK was evaluated according to the following standard using the dissolution amount in MEK at 23° C. For the measurement of the dissolution amount, the compound was precisely weighed in a test tube at 23° C.; and the target solvent was added to the compound so that a predetermined concentration of the liquid to be obtained was set; a ultrasonic wave was applied to the liquid in an ultrasonic washing machine for 30 minutes; and the state of the resulting liquid was visually evaluated.
# Evaluation A: 50% by weight or more
# Evaluation B: 10% by weigh or more and less than 50% by weight
# Evaluation C: less than 10% by weight
# [2] = Solubility test of compound in safe solvent; details: 23° C., visual
# Method: (2) Solubility Test of Compound in Safe Solvent
# as §1, with “PGME and PGMEA” for “MEK”, “each solvent.” for “MEK at 23° C.”
# A: 5.0% by weight≦dissolution amount
# B: 3.0% by weight≦dissolution amount<5.0% by weight
# C: dissolution amount<3.0% by weight
# [3] = Glass transition temperature by DSC; details: 10° C./min to 300° C., second heating after quench, nitrogen gas stream
# Method: (4) Glass Transition Temperature
# The apparatus EXSTAR6000DSC (trade name) manufactured by SII NanoTechnology Inc. was used. About 5 mg of each sample was placed in a non-sealed container made of aluminum, and the temperature was raised to 300° C. at the rate of temperature rise of 10° C./min in a nitrogen gas stream (30 mL/min). After the non-sealed container made of aluminum was quenched, again the temperature was raised to 300° C. at the rate of temperature rise of 10° C./min in a nitrogen gas stream (30 mL/min), thereby performing DSC measurement. The temperature corresponding to the middle point (where the specific heat was changed into the half) of a region in which a discontinuous portion appeared in the baseline was defined as the glass transition point.
# [4] = Thermal decomposition temperature by DSC; details: 10° C./min to 500° C., nitrogen gas stream
# Method: (3) Thermal Decomposition Temperature
# The apparatus EXSTAR6000DSC (trade name) manufactured by SII NanoTechnology Inc. was used. About 5 mg of each sample was placed in a non-sealed container made of aluminum, and the temperature was raised to 500° C. at the rate of temperature rise of 10° C./min in a nitrogen gas stream (30 mL/min). The temperature corresponding to a descending peak appeared in the baseline was defined as the thermal decomposition temperature.
Compound,Solubility test of compound in safe solvent PGME [2],Solubility test of compound in safe solvent PGMEA [2],glass transition point [3],thermal decomposition temperature [4],solubility in MEK [1]
Oc1cccc2c3c(ccc12)Oc1ccc2c(O)cccc2c1C3c1ccc(-c2ccccc2)cc1 [XBisN-4],A (A: 5.0% by weight≦dissolution amount),A (A: 5.0% by weight≦dissolution amount),152 °C,410 °C,B (Evaluation B: 10% by weigh or more and less than 50% by weight)
Oc1cc2ccccc2c2c1Oc1c(O)cc3ccccc3c1C2c1ccc(-c2ccccc2)cc1 [XBisN-6],A (A: 5.0% by weight≦dissolution amount),A (A: 5.0% by weight≦dissolution amount),152 °C,410 °C,B (Evaluation B: 10% by weigh or more and less than 50% by weight)
Oc1ccc2c3c(ccc2c1)Oc1ccc2cc(O)ccc2c1C3c1cc2ccccc2c2ccccc12 [XBisN-8],A (A: 5.0% by weight≦dissolution amount),A (A: 5.0% by weight≦dissolution amount),155 °C,415 °C,B (Evaluation B: 10% by weigh or more and less than 50% by weight)
Oc1ccc2c3c(ccc2c1)Oc1ccc2cc(O)ccc2c1C3c1cc2cccc3ccc4cccc1c4c32 [XBisN-9],A (A: 5.0% by weight≦dissolution amount),A (A: 5.0% by weight≦dissolution amount),155 °C,420 °C,B (Evaluation B: 10% by weigh or more and less than 50% by weight)
Oc1ccc2c3c(ccc2c1)Oc1ccc2cc(O)ccc2c1C31CCCCC1 [XBisN-10],A (A: 5.0% by weight≦dissolution amount),A (A: 5.0% by weight≦dissolution amount),140 °C,400 °C,B (Evaluation B: 10% by weigh or more and less than 50% by weight)
Oc1ccc2c3c(ccc2c1)Oc1ccc2cc(O)ccc2c1C3c1ccc(C2c3c(ccc4cc(O)ccc34)Oc3ccc4cc(O)ccc4c32)cc1 [XBisN-12],A (A: 5.0% by weight≦dissolution amount),A (A: 5.0% by weight≦dissolution amount),152 °C,410 °C,B (Evaluation B: 10% by weigh or more and less than 50% by weight)
Oc1ccc2c3c(ccc2c1)Oc1ccc2cc(O)ccc2c1C3c1ccc(-c2ccc(C3c4c(ccc5cc(O)ccc45)Oc4ccc5cc(O)ccc5c43)cc2)cc1 [XBisN-13],A (A: 5.0% by weight≦dissolution amount),A (A: 5.0% by weight≦dissolution amount),152 °C,410 °C,B (Evaluation B: 10% by weigh or more and less than 50% by weight)

# Now from value to compound, other results behind:
Solubility test of compound in safe solvent PGME [2],Solubility test of compound in safe solvent PGMEA [2],glass transition point [3],thermal decomposition temperature [4],Compound,solubility in MEK [1]
A (A: 5.0% by weight≦dissolution amount),A (A: 5.0% by weight≦dissolution amount),152 °C,410 °C,Oc1ccc2c3c(ccc2c1)Oc1ccc2cc(O)ccc2c1C3c1ccc(-c2ccccc2)cc1 [XBisN-1],A (Evaluation A: 50% by weight or more)
A (A: 5.0% by weight≦dissolution amount),A (A: 5.0% by weight≦dissolution amount),152 °C,410 °C,Oc1ccc2ccc3c(c2c1)C(c1ccc(-c2ccccc2)cc1)c1c(ccc2ccc(O)cc12)O3 [XBisN-2],B (Evaluation B: 10% by weigh or more and less than 50% by weight)
A (A: 5.0% by weight≦dissolution amount),A (A: 5.0% by weight≦dissolution amount),152 °C,410 °C,Oc1cccc2c3c(ccc12)C(c1ccc(-c2ccccc2)cc1)c1ccc2c(O)cccc2c1O3 [XBisN-3],B (Evaluation B: 10% by weigh or more and less than 50% by weight)
A (A: 5.0% by weight≦dissolution amount),A (A: 5.0% by weight≦dissolution amount),152 °C,410 °C,Oc1ccc2ccc3c(c2c1)Oc1c(ccc2ccc(O)cc12)C3c1ccc(-c2ccccc2)cc1 [XBisN-5],B (Evaluation B: 10% by weigh or more and less than 50% by weight)
A (A: 5.0% by weight≦dissolution amount),A (A: 5.0% by weight≦dissolution amount),155 °C,415 °C,Oc1ccc2c3c(ccc2c1)Oc1ccc2cc(O)ccc2c1C3c1cccc2ccccc12 [XBisN-7],B (Evaluation B: 10% by weigh or more and less than 50% by weight)
A (A: 5.0% by weight≦dissolution amount),A (A: 5.0% by weight≦dissolution amount),145 °C,450 °C,Oc1ccc2c3c(ccc2c1)Oc1ccc2cc(O)ccc2c1C31c2ccccc2-c2ccccc21 [XBisN-11],B (Evaluation B: 10% by weigh or more and less than 50% by weight)
A (A: 5.0% by weight≦dissolution amount),A (A: 5.0% by weight≦dissolution amount),152 °C,410 °C,Oc1ccc2c3c(ccc2c1)Oc1ccc2cc(O)ccc2c1C3c1cc(C2c3c(ccc4cc(O)ccc34)Oc3ccc4cc(O)ccc4c32)cc(C2c3c(ccc4cc(O)ccc34)Oc3ccc4cc(O)ccc4c32)c1 [XBisN-14],B (Evaluation B: 10% by weigh or more and less than 50% by weight)
